# From patent US10881709B2, “Immune system modulators and compositions” (Canimguide Therapeutics AB, priority 2015, dated 2021)
# Peptide text beside a SMILES is read from it.
# Assays:
# PBMCs = assay: IL-2 induced proliferation of PBMCs, 3H-thymidine incorporation (human ex vivo model); type: cell-based; details: for inhibition of IL-2 induced proliferation: PBMCs from healthy control samples, 7 days, 3H-thymidine; for neutralization of the inhibitory effect of P3028 on IL-2 induced proliferation: fragments alone or in combination
# Experimental: 100 μl of RPMI1640 supplemented with 200 IU/ml penicillin, […] streptomycin, 4 mM L-glutamine (all from Sigma® Chemical Co. MO, US) and 20% heat-inactivated human serum (autologous or from cancer patients) were added to uncoated, HSA or HSA/IgG coated tissue culture microtiter plates. PBMC, isolated from healthy individuals or patients with metastatic renal cell carcinoma, were diluted in RPMI/2% HSA at a concentration of 5×10^5/ml and 100 μl were added to the microtiter wells. Interleukin-2 (IL-2, Proleukin®, Chiron®, NL), at a final concentration of 120 IU/well, was added to some wells. Cells were cultured for 7 days in a humidified, 5% CO2-atmosphere at 37° C. Proliferation was assayed by incorporation of 1.6 μCi/well of [^3H]-thymidine (Amersham® Int., UK) during the last 18 hrs. Mean values of dpm (disintegrations per minute) of triplicates were used for the calculations.
# Cultures for IL-2 induced proliferation was set up with PBMC from healthy donors and autologous serum as described above with the exception that PBMC were first pre-incubated for 30 min at room temperature with the indicated albumin peptides at a concentration of 10 μg/ml.
# Round-bottomed, 96-well tissue culture plates (Costar®, Corning® Inc. NY, US) were pre-coated with HSA only or HSA and pooled human IgG for intravenous injection (Gammagard®, Baxter AS, DK) as follows; HSA was diluted in RPMI1640 without supplements to a concentration of 10 mg/ml. A mixture of 1 mg/ml IgG in a solution of 9 mg/ml HSA in RPMI (HSA/IgG) was also prepared. 200 μl of HSA or HSA/IgG were then added to each well of the plate. The plates were incubated at 4° C. for 30 minutes after which the wells were washed twice with 200 μl of RPMI1640. The coated plates were used immediately. 100 μl of RPMI1640 supplemented with 200 IU/ml penicillin, […] streptomycin, 4 mM L-glutamine (all from Sigma® Chemical Co. MO, US) and 20% heat-inactivated human serum (autologous) were added to the HSA or HSA/IgG coated tissue culture microtiter wells. PBMC, isolated from healthy individuals, were diluted in RPMI/2% HSA and peptides were added directly to the cell suspension at a concentration of 10 μg/ml. One hundred μl of this cell suspension (5×10^4 lymphocytes) was then added per well providing a final concentration of 5 μg/ml peptide per well. IL-2 (Proleukin®, Chiron®, NL), at a final concentration of 120 IU/well, was added to the wells. Cells were cultured for 7 days in a humidified, 5% CO2-atmosphere at 37° C. Proliferation was assayed by incorporation of 1.6 μCi/well of [^3H]-thymidine (Amersham® Int., UK) during the last 18 hrs. Mean values of dpm (disintegrations per minute) of triplicates were used for the calculations.
# The model included PBMCs isolated from venous blood samples from healthy blood donors (control samples) or cancer patients. One hundred pI of culture medium (RPMI 1640 Dutch's modification (Gibco®, InVitrogenAB®, Stockholm, Sweden) supplemented with 200 IV/ml penicillin, 200 ug/ml streptomycin, 4 mM L-glutamine (all from Sigma® Chemical Co. MO, US) and 20% heat-inactivated human serum) were added to roundbottomed, 96-well tissue culture plates (Costar®, Corning® Inc. NY, US). […] Control sample wells without IL-2 was set up in parallel. […]
# The effect of different peptides on IL-2 induced proliferation was analyzed in the human ex vivo model, using PBMCs from healthy control samples. […] Proliferation was measured as incorporation of ^3H-thymidine during the final 18 hours. […]
# P3028, dHSA, HSA = assay: ELISA and competition ELISA with rabbit anti-3028 antiserum; type: binding, human; details: competition ELISA, serum L
# Experimental: Duplicate wells in Hi-binding microtitre plates (Costar® 2592, Corning® Inc, NY, USA) were coated with 100 μl of P3028 (10 ug/ml), denatured HSA (denHSA, 4.5 ug/ml) or control HSA sample (4.5 ug/ml). All coating reagent were diluted in PBS and incubated at room temperature overnight. The wells where then washed with wash buffer consisting of 0.05% Tween-20 in PBS (Sigma®) followed by blocking for 1 hr at 25° C. with 200 μl 0.5% gelatin prepared from bovine skin (Sigma®) in PBS followed by washing in wash buffer. […] Biotinylated horse anti-rabbit/mouse IgG (Vectastain® ELITE, Vector® Laboratories Inc, CA, USA) diluted 1/5 in ELISA reagent diluent was then added and the plates incubated for 1 h at 25° C. followed by washing. Next, HRP-conjugated streptavidin (R&D Systems® Europe, Ltd, UK) was added. Finally, after washing in wash buffer, substrate solution consisting of H2O2 and tetramethylbenzidine (R&D Systems®) was added. The reaction was stopped with 1M H2504 and the optical density measured as absorbance (A) at dual wavelengths, 450 nm and 570 nm, with a Multiscan® EX microplate reader (Labsystems).
# Two antisera, R and L, from two different rabbits were tested for their ability to bind human serum and denatured Human Serum Albumin (dHSA). […] No substantial binding was detected for wells with no coat 202. […]
# P3028 = P3028 (Homo sapiens, UniProt P02768); assay: Binding of His-tag labeled P3028 to looped (cyclic) peptides on chips, ELISA; details: positional scan of looped 6-meres
# Experimental: In order to identify cyclic peptides that bind to P3028, all possible variants of di- and tripeptides were synthesized on chips and the binding of the His-tag labeled P 3028 was analyzed using the ELISA-technique. Based on the identified binding motifs, looped 6-meres were produced and tested. […] Positional scans were performed in each position of the lead cyclic peptide was replaced with each of the other 19 L-amino acids. Binding of each of the substituted peptides was tested, and peptide sequences with even better binding capacity than that of the lead peptide were identified.
# Solubility = type: physicochemical
# K562 target cells = assay: NK-cell cytotoxicity (NKTEST, flow cytometry); type: cell-based, human; details: 10 ug/ml peptide, effector:target 40:1, four donors
# Experimental: The NK-cell cytotoxic activity of blood mononuclear cells from four healthy donors was tested. Mononuclear cells were separated by standard Ficoll-Paque® Plus (Pharmacia AB, Sweden) density gradient centrifugation from heparinized blood obtained from healthy donors. NK cell cytotoxic activity of the mononuclear cells was then tested using a commercial kit (NKTEST, Orpegen Pharma GmblI, Heidelberg, Germany) following the manufacturers protocol. Briefly, the kit contains cryopreserved, NK-sensitive target cells (K562) labeled with a lipophilic green fluorescent membrane dye, which enables discrimination of effector and target cells. After incubation with effector cells, killed target cells are identified by a DNA-stain, which penetrates and specifically stain the nuclei of dead target cells. This way the percentage of killed targets can be determined by flow cytometry. The mononuclear cells were preincubated for 30 min at 37° C. with the indicated peptides (peptides have been described previously) at 10 ug/ml. Target cells were then added, giving an effector:target ratio of 40:1, and the cell mixture incubated at 37° C. for 3-4 hours. Samples were analysed on a FACSCalibur (BD® Biosciences, San Jose, Calif.).
Compound,inhibition of IL-2 induced proliferation (PBMCs),neutralization of the inhibitory effect of P3028 on IL-2 induced proliferation (PBMCs),"binding of rabbit anti-P3028 serum antibodies to P3028 fragments (P3028, dHSA, HSA)",binding of cyclic peptides to P3028 (P3028),other results
VFDEFKPLVE (listed as Homo sapiens) [P3325],much weaker,do not inhibit,bound preferentially,,
CLRLNVFCG [SEQ ID NO: 265],,,,highest affinity,
EPQNLIK (listed as Homo sapiens) [P3218],much weaker,do not inhibit,not,,
CC(C)C[C@H](NC(=O)[C@H](CO)NC(=O)[C@H](CC(C)C)NC(=O)[C@H](Cc1ccc(O)cc1)NC(=O)[C@@H](NC(=O)[C@H](Cc1ccccc1)NC(=O)[C@H](Cc1ccccc1)NC(=O)[C@@H](NC(=O)[C@H](CC(=O)O)NC(=O)[C@H](CC(C)C)NC(=O)[C@H](CCCCN)NC(=O)[C@@H](N)CCCCN)[C@@H](C)O)C(C)C)C(=O)N[C@@H](Cc1ccccc1)C(=O)N[C@H](C(=O)N[C@@H](CCC(=O)O)C(=O)N[C@@H](CCCNC(=N)N)C(=O)O)[C@@H](C)O [SEQ ID NO: 552] (H-KKLDTFFVYLSLFTER-OH; N-terminus and C-terminus assumed),,,,,solubility (Solubility): soluble in aqueous solution
CLRLIVMCG [SEQ ID NO: 266],,,,highest affinity,
CC(C)C[C@H](NC(=O)[C@H](C)NC(=O)[C@H](CC(N)=O)NC(=O)[C@H](CCC(N)=O)NC(=O)[C@H](Cc1ccccc1)NC(=O)[C@H](CCCCN)NC(=O)[C@H](Cc1ccc(O)cc1)NC(=O)[C@H](CCC(=O)O)NC(=O)CNC(=O)[C@H](CC(C)C)NC(=O)[C@H](CCC(N)=O)NC(=O)[C@H](CCC(=O)O)NC(=O)[C@H](Cc1ccccc1)NC(=O)[C@H](CC(C)C)NC(=O)[C@@H](N)CCC(=O)O)C(=O)N[C@@H](CC(C)C)C(=O)N[C@H](C(=O)N[C@@H](CCCNC(=N)N)C(=O)O)C(C)C [P3027] (H-ELFEQLGEYKFQNALLVR-OH; N-terminus and C-terminus assumed),,,,,effect on NK-cell cytotoxicity (percent specific lysis of K562) (K562 target cells): Inhibition was not seen
